Measured values taken from patent US4177292A, “Novel 5H-benzocyclohepten-7-amines” (Roussel Uclaf, priority 1977, dated 1979).
Counter-ions that a name gives are not always drawn. Like-named read-outs stand apart in the source and are kept apart here.

Experiments:
[1] = test system: uptake of 14C-5HT in synaptosomes; experiment: Inhibition of Serotonine uptake in vivo (synaptosomes prepared after intraperitoneal administration); settings: Rattus norvegicus, ip, 5 mg/kg intraperitoneal, female rats 19 to 21 days old
Procedure: (§1) The inhibition of serotonine (5HT) uptake was measured in impure synaptosomes prepared from the entire brain of a female rat 19 to 21 days old using the technique of Kannengiesser et al [Biochemical Pharmacology, Vol. 22, (1973) p. 73].
The tested products were intraperitoneally administered to a groups of female rats 19 to 21 days old at doses of 5 mg/kg. After 1 hour or 24 hours, the brain was removed and synaptosomes were prepared and placed in an incubator in the presence of 14 C-5HT as indicated in the previous test.

dogs = experiment: Anorexigenic activity; format: in vivo, dog; settings: oral (gelules), 10 mg/kg, starved about 15 hours
Procedure: This activity was determined on dogs by the method of Adams et al [J. Pharm. Sci., Vol. 53 (1964), p. 1405] in which the animals received as food exclusively U.A.R. mash with a base of 800 g per day per dog. On the day of the test of a presumed anorexigenic agent, the daily individual ration of the dogs was divided into approximately equal small balls (15 to 20 g) which were offered to the dogs every 10 minutes for 8 hours. Normally the animals regularly accept the small balls successively when they are presented. […] The hourly number of refusal is determined in the animals treated with the same dose and is expressed as a percentage of the total hourly number of small balls presented per […]. At the start of the test, the animals had been starved for about 15 hours although they had drinking water available. They are deprived of water during the test. The test was effected with a group of 7 bastard dogs both male and female weighing between 11.4 and 14 kg (12.1 kg average) selected as a function of their response to a weak dose (5 mg/kg) of fenfluramine.

[2] = test system: serotonine (5HT) uptake in synaptosomes; experiment: Inhibition of Serotonine uptake in vitro; format: biochemical; settings: impure synaptosomes from entire brain of female rat 19 to 21 days old; 37° C., 5 minutes; 14C-5HT 10^-7 M; read-out: Inhibiting concentration IC50 of 14C-5HT uptake
Procedure: as §1

Acute toxicity = settings: mouse, in vivo, ip; mice, intraperitoneal, determined 48 hours later; read-out: DL50
Procedure: The DL50 dose which kills 50% of mice after intraperitoneal administration of the test compound was determined 48 hours later and the DL50 for the compounds is reported in Table III.

[3] = 1 hour, read-out: % inhibition of 14C-5HT uptake after 1 Hour
[4] = 24 hours, read-out: % inhibition of 14C-5HT uptake after 24 Hours

Question: What does the source list for `CN(C)[C@H]1CCc2ccccc2[C@@H](Oc2ccc([N+](=O)[O-])cc2)C1` (relative stereo) [Example 1, fumarate of cis N,N-dimethyl-5-[4-nitrophenyloxy]-6,7,8,9-tetrahydro-5H-benzocycloheptene-7-amine]?
Answer: inhibition at 5 mg/kg [1, 3]: 58 ± 4%; inhibition at 5 mg/kg [1, 4]: 67 ± 2%; oral anorexigenic activity (refusal of food balls) (dogs): important oral anorexigenic activity; IC50 [2]: 340 nM; LD50 at 48 h (Acute toxicity): 100 mg/kg

Question: Which results are given for `CN(C)[C@@H]1CCc2ccccc2[C@H](Oc2ccc(N)cc2)C1.Cl.Cl` (relative stereo) [Example 2, cis N,N-dimethyl-5-[4-aminophenoxy]-6,7,8,9-tetrahydro-5H-benzocycloheptene-7-amine dihydrochloride]?
Answer: IC50 [2]: 14000 nM; LD50 at 48 h (Acute toxicity): 200 mg/kg

Question: Which results are given for `CN(C)[C@@H]1CCc2ccccc2[C@H](Oc2ccc(C(F)(F)F)cc2)C1.Cl` (relative stereo) [Example 3, cis N,N-dimethyl-5-[4-trifluoromethylphenoxy]-6,7,8,9-tetrahydro-5H-benzocycloheptene-7-amine hydrochloride]?
Answer: IC50 [2]: 760 nM; LD50 at 48 h (Acute toxicity): 150 mg/kg

Question: With `CN(C)[C@H]1CCc2ccccc2[C@H](Oc2ccc([N+](=O)[O-])cc2)C1.Cl` (relative stereo) [Example 4, trans N,N-dimethyl-5-[4-nitrophenoxy]-6,7,8,9-tetrahydro-5H-benzocycloheptene-7-amine hydrochloride] as the compound, how does the inhibition at 5 mg/kg [1, 3] read?
Answer: Its inhibition at 5 mg/kg is 61 ± 2%.

Question: And the inhibition at 5 mg/kg [1, 4]?
Answer: Its inhibition at 5 mg/kg is 39 ± 4%.

Question: What about the IC50 [2] of the same compound?
Answer: Its IC50 is 83 nM.

Question: What about the LD50 at 48 h (Acute toxicity) of the same compound?
Answer: Its LD50 at 48 h is 100 mg/kg.

Question: Which IC50 [2] does the source give for `CN(C)[C@@H]1CCc2ccccc2[C@H](Oc2ccccc2C(F)(F)F)C1.Cl` (relative stereo) [Example 5, cis N,N-dimethyl-5-[2-trifluoromethylphenoxy]-6,7,8,9-tetrahydro-5H-benzocycloheptene-7-amine hydrochloride] here?
Answer: Its IC50 is 2300 nM.

Question: And the LD50 at 48 h (Acute toxicity)?
Answer: The LD50 at 48 h was 200 mg/kg.

Question: With `CN[C@@H]1CCc2ccccc2[C@H](Oc2ccc(C(F)(F)F)cc2)C1.Cl` (relative stereo) [Example 6, cis N-methyl-5-[4-trifluoromethylphenoxy]-6,7,8,9-tetrahydro-5H-benzocycloheptene-7-amine hydrochloride] as the compound, how does the inhibition at 5 mg/kg [1, 3] read?
Answer: The inhibition at 5 mg/kg was 41 ± 3%.

Question: And the inhibition at 5 mg/kg [1, 4]?
Answer: The inhibition at 5 mg/kg was 61 ± 3%.

Question: What about the IC50 [2] of the same compound?
Answer: The IC50 was 1900 nM.

Question: What about the LD50 at 48 h (Acute toxicity) of the same compound?
Answer: The LD50 at 48 h was 400 mg/kg.

Question: For `CN(C)[C@@H]1CCc2ccccc2[C@H](Oc2ccc(Br)cc2)C1.Cl` (relative stereo) [Example 7, cis N,N-dimethyl-5-[4-bromophenoxy]-6,7,8,9-tetrahydro-5H-benzocyclohepten-7-amine hydrochloride], which inhibition at 5 mg/kg [1, 3] is on record?
Answer: The inhibition at 5 mg/kg was 40 ± 3%.

Question: And the inhibition at 5 mg/kg [1, 4]?
Answer: Its inhibition at 5 mg/kg is 65 ± 2%.

Question: What about the IC50 [2] of the same compound?
Answer: Its IC50 is 320 nM.

Question: And the LD50 at 48 h (Acute toxicity)?
Answer: The LD50 at 48 h was 150 mg/kg.

Question: Which IC50 [2] does the source give for `CN(C)[C@@H]1CCc2ccccc2[C@H](Oc2ccccc2[N+](=O)[O-])C1.Cl` (relative stereo) [Example 8, cis N,N-dimethyl-5-[2-nitrophenoxy]-6,7,8,9-tetrahydro-5H-benzocyclohepten-7-amine hydrochloride] here?
Answer: The IC50 was 4000 nM.

Question: And the LD50 at 48 h (Acute toxicity)?
Answer: The LD50 at 48 h was 150 mg/kg.

Question: With `COc1ccccc1O[C@@H]1C[C@H](N(C)C)CCc2ccccc21` (relative stereo) [Example 10, cis N,N-dimethyl-5-[2-methoxyphenoxy]-6,7,8,9-tetrahydro-5H-benzocyclohepten-7-amine hydrochloride] as the compound, how does the IC50 [2] read?
Answer: The IC50 was 1300 nM.

Question: For `COc1ccc(O[C@@H]2C[C@H](N(C)C)CCc3ccccc32)cc1` (relative stereo) [Example 11, cis N,N-dimethyl-5-[4-methoxyphenoxy]-6,7,8,9-tetrahydro-5H-benzocyclohepten-7-amine hydrochloride], which IC50 [2] is on record?
Answer: The IC50 was 1300 nM.

Question: For `CN(C)[C@H]1CCc2ccccc2[C@@H](Oc2ccc([N+](=O)[O-])c(C(F)(F)F)c2)C1` (relative stereo) [Example 17, cis-N,N-dimethyl-5-[4-nitro-3-trifluoromethylphenoxy]-6,7,8,9,-tetrahydro-5H-benzocyclohepten-7-amine], which IC50 [2] is on record?
Answer: Its IC50 is 950 nM.

Question: What about the LD50 at 48 h (Acute toxicity) of the same compound?
Answer: The LD50 at 48 h was > 400 mg/kg.

Question: Which results are given for `CN(C)[C@H]1CCc2ccc(Cl)cc2[C@H](Oc2ccc([N+](=O)[O-])cc2)C1.Cl` (relative stereo) [Example 18, trans N,N-dimethyl-3-chloro-5-[4-nitrophenoxy]-6,7,8,9-tetrahydro-5H-benzocyclohepten-7-amine hydrochloride]?
Answer: IC50 [2]: 1500 nM; LD50 at 48 h (Acute toxicity): 100 mg/kg

Question: With `CN(C)[C@H]1CCc2ccc(Cl)cc2[C@@H](Oc2ccc([N+](=O)[O-])cc2)C1` (relative stereo) [Example 19, cis N,N-dimethyl-3-chloro-5-[4-nitrophenoxy]-6,7,8,9-tetrahydro-5H-benzocyclohepten-7-amino hydrochloride] as the compound, how does the IC50 [2] read?
Answer: Its IC50 is 7100 nM.

Question: What about the LD50 at 48 h (Acute toxicity) of the same compound?
Answer: The LD50 at 48 h was > 200 mg/kg.
